# Measurements as given in US20240140950A1, “NITROGEN-CONTAINING POLYCYCLIC AROMATIC COMPOUND, and PREPARATION METHOD AND APPLICATION THEREOF” (priority 2021, published 2024).
# Read-outs that look alike come from different tables or passages of the source.
# Columns and labels:
# mouse myeloma SP2/0 = assay: CCK-8 cell survival assay, SP2/0; format: cell-based; conditions: CCK-8, 48 h, read-out: IC50 value of the inhibition on SP2/0
# Experimental: (§1) a. […] Reagents • CCK8 reagent kit, purchased from TargetMol China; Annexin V-FITC/PI double staining cell apoptosis detection kit, purchased from Seven Biotech Company. c. Instruments • Multi-function microplate reader FLUOstar Omega, purchased from BMG LABTECH, Germany; • Flow cytometer, purchased from BD Company, United States. d. Experimental Method
# (§2) The cells in logarithmic phase with good condition are taken and digested with trypsin, and the prepared culture medium is added to prepare a cell suspension, the cell density being adjusted to 5×10^4 cells/mL. The digested cells are inoculated into a 96-well plate, in which 100 μL of cell suspension is added to each well, and incubated overnight in a cell incubator at 37° C. with 5% CO2. After the cells grow adhered to the wall, the blank control group and the compound groups to be tested with different concentration gradients are set up respectively. […] The optical density value (OD) is measured by using a multifunctional enzyme-linked immunosorbent assay instrument, the wavelength setting to 450 nm. The experiment is repeated for three times, the cell survival rates of different drug concentrations in each group are calculated and counted according to a formula: cell survival rate=(experimental group−blank control group/control group)×100%, and the results are calculated with GraphPad Prism software.
# KM mice = assay: Mouse toxicity test (acute, intraperitoneal); format: in vivo
# From the text: 12 KM mice with body weight 18 g to 22 g and age of 4 to 6 weeks are taken and fed adaptively for 7 days. All mice may eat freely and be provided with sufficient fresh drinking water. The feeding environment for mice meets the standard of SPF laboratory animal level environmental facility.
# The behavioral changes after administration and death within 14 days of the animals are observed.
# [1] = test system: MDA-MB-231 Human triple negative breast cancer; assay: Flow cytometric detection of cell apoptosis (Annexin V-FITC/PI), MDA-MB-231; format: cell-based; conditions: 48 h
# Experimental: (§3) The cells that are in logarithmic phase and have good condition are taken, digested with trypsin, the prepared culture medium is added to prepare a cell suspension, and the cell density is adjusted to 5×10^4 cells/mL. The digested cells are inoculated in 6-well plate, in which 2 mL cell suspension is added to each well, and incubated overnight in a cell incubator at 37° C. with 5% CO2. After the cells are adhered to the wall, a blank control group and the group of experimental drug to be tested with different concentration gradients are set respectively. 2 mL drug is added to each well for further cultivation for 48 h, and EDTA-free trypsin is used for cell digestion and the digested cells are collected. For the apoptosis detection, the collected cells are required to be adjusted to the cell density of 1×10^6 cells/mL, put into a 5 mL centrifuge tube and centrifuged at 1000 rpm for 5 min, and then washed with PBS for three times. 100 μL Binding Buffer is added to resuspend the cells, and except for the single-stained control and blank control cells, 5 μL FITC and 5 μL PI are added to each tube, mixed gently, and incubated at room temperature in the dark for 15 min. 400 μL Binding Buffer is added into each well before testing on the machine, and mixed and tested on the machine. • Blank control: drug-induced apoptotic cells—without adding a fluorescent reagent (the voltage of scattered light is adjusted to determine the FSC SSC of the population). • Negative control: normal cells (without drug treatment)—added with all the fluorescent staining reagents of the experiment (at the lower left corner, the voltage of the two fluorescent channels is determined). • Single-stained control: one tube each for FITC and PI, positive control for compensation adjustment: drug-induced apoptotic cells or heat-induced apoptotic cells are added with all fluorescent reagents of the experiment (confirming that there is no problem with reagents, instruments and operations).
# [2] = test system: A549 Human lung cancer cell; assay: Flow cytometric detection of cell apoptosis (Annexin V-FITC/PI), A549; format: cell-based; conditions: 48 h
# Experimental: as §3
# SP2/0 Mouse myeloma = assay: Flow cytometric detection of cell apoptosis (Annexin V-FITC/PI), SP2/0; format: cell-based; conditions: for Apoptosis in early stage / Apoptosis in late stage: 48 h
# Experimental: as §3
# human melanoma A375 = assay: CCK-8 cell survival assay, A375; format: cell-based; conditions: CCK-8, 48 h, read-out: IC50 value of the inhibition on A375
# Experimental: as §1, §2
# A375 Human melanoma = assay: Flow cytometric detection of cell apoptosis (Annexin V-FITC/PI), A375; format: cell-based; conditions: 48 h
# Experimental: as §3
# [3] = test system: human lung cancer cell A549; assay: CCK-8 cell survival assay, A549; format: cell-based; conditions: CCK-8, 48 h, read-out: IC50 value of the inhibition on A549
# Experimental: as §1, §2
# [4] = test system: human triple negative breast cancer MDA-MB-231; assay: CCK-8 cell survival assay, MDA-MB-231; format: cell-based; conditions: CCK-8, 48 h, read-out: IC50 value of the inhibition on MDA-MB-231
# Experimental: as §1, §2
# cancer cell HELA = assay: MTT cell inhibition assay, HELA; format: cell-based; conditions: 48 h
# Experimental: (§4) Two cancer cell lines HELA and MCF-7 in the logarithmic phase and the human normal cell line 293T are taken and the cells thereof are counted with a cell counting plate, and then the concentration of the cell suspension is adjusted to 10^5 cells/mL. The cells are inoculated into a 96-well plate with 100 μL of cell suspension for each well. After the cell suspension is evenly distributed, and the plate is placed into a CO2 incubator for incubation. […] For each drug to be tested and control groups, 100 μL of the drug to be tested is added to each well; and four parallel replicates are set for each concentration. After 48 h cultivation, 10 μL MTT is added for another 4 h cultivation, and the supernatant is discarded. 100 μL analytically pure dimethyl sulfoxide is added, and shaken evenly on a shaking table. After the solution is completely uniform, its absorbance is measured at a wavelength of 490 nm with a microplate reader. The experiment is repeated twice.
# human normal cell 293T = assay: MTT cytotoxicity assay, human normal cell 293T; format: cell-based; conditions: 48 h, read-out: IC50 value of the inhibition on human normal cell 293T
# Experimental: Two cancer cell lines HELA and MCF-7 in the logarithmic phase and the human normal cell line 293T are taken and the cells thereof are counted with a cell counting plate, and then the concentration of the cell suspension is adjusted to 10^5 cells/mL. The cells are inoculated into a 96-well plate with 100 μL of cell suspension for each well. After the cell suspension is evenly distributed, and the plate is placed into a CO2 incubator for incubation. The drug to be tested is added after the cells grow uniformly and have spread on all the bottom of the culture dish. DMEM culture solution is used as a negative control group (the drug to be tested is completely dissolved in the culture solution without dissolving it in DMSO), and cisplatin is used as a positive control group. For each drug to be tested and control groups, 100 μL of the drug to be tested is added to each well; and four parallel replicates are set for each concentration. After 48 h cultivation, 10 μL MTT is added for another 4 h cultivation, and the supernatant is discarded. 100 μL analytically pure dimethyl sulfoxide is added, and shaken evenly on a shaking table. After the solution is completely uniform, its absorbance is measured at a wavelength of 490 nm with a microplate reader. The experiment is repeated twice.
# cancer cell MCF-7 = assay: MTT cell inhibition assay, MCF-7; format: cell-based
# Experimental: as §4
# [5] = KM mice, 40 mg/kg intraperitoneal
smiles,measurement,setting,value
COc1ccc2c(c1)C13CCNC1(C)C1(C)c4[nH]c5ccc(OC)cc5c4CCN1C3N2 (stereo not shown) [Compound 14],IC50,mouse myeloma SP2/0; Mus musculus,15.1 ± 2.91 µM
same,behavioral changes after administration,"KM mice; KM mice, 20 mg/kg intraperitoneal",no abnormalities
same,behavior and spirit of the animals,KM mice; [5],normal
same,death within 14 days,KM mice; [5],no death occurs
same,death within 14 days,"KM mice; KM mice, 60 mg/kg intraperitoneal",one animal dies on the sixth day
same,death within 14 days,"KM mice; KM mice, 80 mg/kg intraperitoneal",two animals die on the second day
same,lethal dose,"KM mice; KM mice, intraperitoneal, single injection, 14 days observation",about 60 mg/kg
same,body weight / weight gain,"KM mice; mouse, in vivo, ip, 20 mg/kg",not significantly different
same,weight gain compared with the negative control group,"KM mice; mouse, in vivo, ip, 40 mg/kg",slower
same,Apoptosis in early stage,"[1]; MDA-MB-231, 15 μM",9.21 ± 1.14%
same,Apoptosis in late stage,"[1]; MDA-MB-231, 15 μM",13.41 ± 1.24%
same,Apoptosis in early stage,"[1]; MDA-MB-231, 30 μM",17.70 ± 3.31%
same,Apoptosis in late stage,"[1]; MDA-MB-231, 30 μM",16.33 ± 0.72%
same,Apoptosis in early stage,"[1]; MDA-MB-231, 45 μM",20.83 ± 2.79%
same,Apoptosis in late stage,"[1]; MDA-MB-231, 45 μM",23.66 ± 1.70%
same,Apoptosis in early stage,"[2]; A549, 10 μM",4.12 ± 1.73%
same,Apoptosis in late stage,"[2]; A549, 10 μM",9.70 ± 1.18%
same,Apoptosis in early stage,"[2]; A549, 30 μM",16.23 ± 0.90%
same,Apoptosis in late stage,"[2]; A549, 30 μM",16.08 ± 0.62%
same,Apoptosis in early stage,"[2]; A549, 60 μM",41.28 ± 5.36%
same,Apoptosis in late stage,"[2]; A549, 60 μM",27.32 ± 1.22%
same,Apoptosis in early stage,"SP2/0 Mouse myeloma; SP2/0, 10 μM",13.15 ± 0.57%
same,Apoptosis in late stage,"SP2/0 Mouse myeloma; SP2/0, 10 μM",13.44 ± 1.50%
same,Apoptosis in early stage,"SP2/0 Mouse myeloma; SP2/0, 20 μM",35.97 ± 3.37%
same,Apoptosis in late stage,"SP2/0 Mouse myeloma; SP2/0, 20 μM",26.65 ± 1.64%
same,total apoptosis rate at early and late stages,"SP2/0 Mouse myeloma; SP2/0, 30 μM",97%
same,Apoptosis in early stage,"SP2/0 Mouse myeloma; SP2/0, 30 μM",58.56 ± 1.26%
same,Apoptosis in late stage,"SP2/0 Mouse myeloma; SP2/0, 30 μM",39.36 ± 0.87%
same,IC50,"human melanoma A375; Homo sapiens, A-375",17.1 ± 1.45 µM
same,Apoptosis in early stage,"A375 Human melanoma; A375, 10 μM",27.41 ± 1.87%
same,Apoptosis in late stage,"A375 Human melanoma; A375, 10 μM",10.03 ± 1.87%
same,Apoptosis in early stage,"A375 Human melanoma; A375, 20 μM",34.09 ± 3.2%
same,Apoptosis in late stage,"A375 Human melanoma; A375, 20 μM",13.17 ± 2.30%
same,IC50,"[3]; Homo sapiens, A549",30.8 ± 1.72 µM
same,IC50,"[4]; Homo sapiens, MDA-MB-231",26 ± 1.43 µM
Cc1ccc2c(c1)C13CCNC1C1(C)c4[nH]c5ccc(C)cc5c4CCN1C3N2 (stereo not shown) [Compound 20],IC50,"cancer cell HELA; Homo sapiens, HeLa",40.1 µM
"N.N.[Cl][Pt][Cl] [Cisplatin, cisplatin, reference compound]",IC50,mouse myeloma SP2/0,17.4 ± 1.24 µM
same,IC50,human normal cell 293T,17.3 µM
same,IC50,human melanoma A375,16.4 ± 0.36 µM
same,IC50,[3],35.8 ± 1.89 µM
same,IC50,cancer cell MCF-7; 48 h,14.2 µM
same,IC50,[4],23.4 ± 1.75 µM
same,IC50,cancer cell HELA,13.2 µM
Cc1ccc2c(c1)C13CCNC1(C)C1(C)c4[nH]c5ccc(C)cc5c4CCN1C3N2 (stereo not shown) [Compound 15],IC50,"human normal cell 293T; Homo sapiens, HEK-293T",134 µM
same,IC50,"cancer cell MCF-7; Homo sapiens, MCF7, 48 h",29.8 µM
same,IC50,"cancer cell HELA; Homo sapiens, HeLa",23.6 µM
